Results reported in patent US10752624B2, “Kinase inhibitors” (Origenis GmbH, priority 2012, dated 2020).

Experiments:
LRRK2 = LRRK2 (Homo sapiens, UniProt Q5S007); assay: LRRK2-LRRK2 G2019S-Assay (LanthaScreen Eu Kinase Binding Assay); conditions: 5 nM LRRK2, 10 nM tracer 236, 2 nM EU-Anti-GST antibody, 1 h at RT; read-out: LRRK2 Activities: IC50
Outline: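 In a TR-FRET tracer displacement assay, LRRK2 or its mutants at 5 nM were mixed with 2 nM Eu-anti-GST antibody and 10 nM tracer 236 in kinase buffer A for 1 h at RT. The 665/615 nm emission ratio was plotted against inhibitor concentration, and IC50 came from a variable-slope sigmoidal fit.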

SYK kinase = biological target: T1, SYK kinase (Homo sapiens, UniProt P43405); assay: SYK Assay (OMNIA Kinase Assay, SOX peptide fluorescence); assay type: biochemical; conditions: 1 mM ATP, 10 μM Omnia Peptide Substrate Tyr 7, 30° C., readings for 30 minutes; read-out: SYK Activities: IC50
T1 construct: purchased Invitrogen, Carlsbad
Outline: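 The reaction was run at 30 °C with 1 mM ATP, 0.2 mM DTT and 10 μM Omnia Tyr 7 peptide (final) and started by adding SYK. Chelation-enhanced SOX fluorescence (ex 360/em 485 nm) was read every 30 s for 30 min. Reaction velocity versus inhibitor concentration was fitted sigmoidally for IC50.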

LRRK2, sequence (Q5S007 970-2527 limits assumed): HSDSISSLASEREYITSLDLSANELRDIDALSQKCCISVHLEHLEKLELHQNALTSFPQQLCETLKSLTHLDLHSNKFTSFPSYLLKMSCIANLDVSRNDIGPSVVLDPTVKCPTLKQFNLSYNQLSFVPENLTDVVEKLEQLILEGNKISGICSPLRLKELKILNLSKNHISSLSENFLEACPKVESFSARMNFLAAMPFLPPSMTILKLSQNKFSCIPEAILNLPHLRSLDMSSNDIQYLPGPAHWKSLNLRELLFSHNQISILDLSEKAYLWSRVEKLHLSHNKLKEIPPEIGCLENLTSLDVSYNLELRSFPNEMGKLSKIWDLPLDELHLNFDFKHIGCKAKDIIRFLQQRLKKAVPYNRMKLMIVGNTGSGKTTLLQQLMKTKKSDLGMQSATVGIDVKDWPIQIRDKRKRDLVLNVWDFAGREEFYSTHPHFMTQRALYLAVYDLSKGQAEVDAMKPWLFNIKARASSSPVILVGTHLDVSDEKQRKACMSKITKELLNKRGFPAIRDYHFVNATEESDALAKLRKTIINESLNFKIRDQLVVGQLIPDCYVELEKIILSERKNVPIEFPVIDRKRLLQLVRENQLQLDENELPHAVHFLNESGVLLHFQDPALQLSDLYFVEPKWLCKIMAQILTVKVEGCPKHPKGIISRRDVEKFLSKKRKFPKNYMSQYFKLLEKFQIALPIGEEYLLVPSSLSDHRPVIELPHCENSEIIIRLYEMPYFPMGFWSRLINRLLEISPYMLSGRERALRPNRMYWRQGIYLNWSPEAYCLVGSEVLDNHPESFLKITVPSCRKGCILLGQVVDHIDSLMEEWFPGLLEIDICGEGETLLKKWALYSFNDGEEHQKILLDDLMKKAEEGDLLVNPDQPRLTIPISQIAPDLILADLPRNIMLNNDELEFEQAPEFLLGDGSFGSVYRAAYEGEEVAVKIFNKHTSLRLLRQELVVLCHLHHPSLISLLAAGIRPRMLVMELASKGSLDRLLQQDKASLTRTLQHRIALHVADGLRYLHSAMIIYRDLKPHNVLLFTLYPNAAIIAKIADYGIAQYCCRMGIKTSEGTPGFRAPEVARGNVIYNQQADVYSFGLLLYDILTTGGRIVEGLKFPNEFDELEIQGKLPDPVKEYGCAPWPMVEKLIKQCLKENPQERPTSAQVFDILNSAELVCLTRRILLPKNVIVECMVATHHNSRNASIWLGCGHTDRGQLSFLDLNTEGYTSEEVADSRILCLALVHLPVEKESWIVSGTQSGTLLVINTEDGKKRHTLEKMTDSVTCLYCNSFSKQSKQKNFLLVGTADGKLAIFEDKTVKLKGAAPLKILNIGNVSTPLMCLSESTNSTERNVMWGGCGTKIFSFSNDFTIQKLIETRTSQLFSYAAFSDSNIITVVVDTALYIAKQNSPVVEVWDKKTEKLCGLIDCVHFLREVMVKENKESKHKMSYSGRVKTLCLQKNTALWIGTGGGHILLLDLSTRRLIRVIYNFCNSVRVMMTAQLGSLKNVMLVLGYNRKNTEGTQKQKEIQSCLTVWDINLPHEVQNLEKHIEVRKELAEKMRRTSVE

IC50 (LRRK2) [nM]	IC50 (SYK kinase) [nM]	SMILES
10 to 100	< 10	CS(=O)(=O)c1ccc2nc(Nc3ccc(O)cc3)c3n[nH]cc3c2c1 [Example 349, 4-((8-(methylsulfonyl)-2H-pyrazolo[3,4-c]quinolin-4-yl)amino)phenol]
10 to 100	100 to 1000	CCc1cccc(Nc2nc3ccc(S(C)(=O)=O)cc3c3c[nH]nc23)c1 [Example 333, N-(3-ethylphenyl)-8-(methylsulfonyl)-2H-pyrazolo[3,4-c]quinolin-4-amine]
< 10	10 to 100	CS(=O)(=O)c1ccc2c(c1)nc(Nc1cnn(CCO)c1)c1[nH]ncc12 [Example 193, 2-(4-((7-(methylsulfonyl)-3H-pyrazolo[3,4-c]quinolin-4-yl)amino)-1H-pyrazol-1-yl)ethan-1-ol]
10 to 100	< 10	CC(=O)N1CCN(c2ccc(Nc3nc4ccc(S(C)(=O)=O)cc4c4cn[nH]c34)cc2)CC1 [Example 62, 1-(4-(4-((8-(methylsulfonyl)-3H-pyrazolo[3,4-c]quinolin-4-yl)amino)phenyl)piperazin-1-yl)ethan-1-one]
100 to 1000	100 to 1000	COCCn1cc(Nc2nc3cc(SC)ccc3c3cn[nH]c23)cn1 [Example 171, N-(1-(2-methoxyethyl)-1H-pyrazol-4-yl)-7-(methylthio)-3H-pyrazolo[3,4-c]quinolin-4-amine]
100 to 1000	100 to 1000	Fc1cccc2nc(Nc3ccc(N4CCN(C5CC5)CC4)cc3)c3[nH]ncc3c12 [Example 10, N-(4-(4-cyclopropylpiperazin-1-yl)phenyl)-9-fluoro-3H-pyrazolo[3,4-c]quinolin-4-amine]
10 to 100	100 to 1000	COc1cc(OC)c2nc(Nc3ccc(N4CCOCC4)cc3)c3[nH]ncc3c2c1 [Example 288, 6,8-dimethoxy-N-(4-morpholinophenyl)-3H-pyrazolo[3,4-c]quinolin-4-amine]
10 to 100	10 to 100	COc1ccc2nc(Nc3cnn(C4CC4)c3)c3[nH]ncc3c2c1 [Example 293, N-(1-cyclopropyl-1H-pyrazol-4-yl)-8-methoxy-3H-pyrazolo[3,4-c]quinolin-4-amine]
< 10	100 to 1000	COc1nn(C(C)C)cc1Nc1nc2cccc(OC)c2c2cn[nH]c12 [Example 224, N-(1-isopropyl-3-methoxy-1H-pyrazol-4-yl)-9-methoxy-3H-pyrazolo[3,4-c]quinolin-4-amine]
< 10	100 to 1000	COc1cccc2nc(Nc3cnn(CCF)c3)c3[nH]ncc3c12 [Example 253, N-(1-(2-fluoroethyl)-1H-pyrazol-4-yl)-9-methoxy-3H-pyrazolo[3,4-c]quinolin-4-amine]
10 to 100	100 to 1000	COCCCn1cc(Nc2nc3ccc(S(C)(=O)=O)cc3c3cn[nH]c23)c(OC)n1 [Example 231, N-(3-methoxy-1-(3-methoxypropyl)-1H-pyrazol-4-yl)-8-(methylsulfonyl)-3H-pyrazolo[3,4-c]quinolin-4-amine]
< 10	10 to 100	COc1cccc2nc(Nc3cnn(C(C)(C)C#N)c3)c3[nH]ncc3c12 [Example 184, 2-(4-((9-methoxy-3H-pyrazolo[3,4-c]quinolin-4-yl)amino)-1H-pyrazol-1-yl)-2-methylpropanenitrile]
< 10	10 to 100	CC(C)Cn1cc(Nc2nc3ccc(S(C)(=O)=O)cc3c3cn[nH]c23)cn1 [Example 187, N-(1-isobutyl-1H-pyrazol-4-yl)-8-(methylsulfonyl)-3H-pyrazolo[3,4-c]quinolin-4-amine]
100 to 1000	10 to 100	CS(=O)(=O)c1ccc2c(c1)nc(Nc1ccc(N3CCN(CCO)CC3)cc1)c1[nH]ncc12 [Example 303, 2-(4-(4-((7-(methylsulfonyl)-3H-pyrazolo[3,4-c]quinolin-4-yl)amino)phenyl)piperazin-1-yl)ethan-1-ol]
100 to 1000	100 to 1000	COc1cccc2c1nc(Nc1cnn(C3CCOCC3)c1)c1[nH]ncc12 [Example 307, 6-methoxy-N-(1-(tetrahydro-2H-pyran-4-yl)-1H-pyrazol-4-yl)-3H-pyrazolo[3,4-c]quinolin-4-amine]
< 10	10 to 100	COCC(C)(C)n1cc(Nc2nc3ccc(S(C)(=O)=O)cc3c3cn[nH]c23)cn1 [Example 208, N-(1-(1-methoxy-2-methylpropan-2-yl)-1H-pyrazol-4-yl)-8-(methylsulfonyl)-3H-pyrazolo[3,4-c]quinolin-4-amine]
10 to 100	10 to 100	CC(=O)N1CCC(n2cc(Nc3nc4cc(S(C)(=O)=O)ccc4c4cn[nH]c34)cn2)CC1 [Example 168, 1-(4-(4-((7-(methylsulfonyl)-3H-pyrazolo[3,4-c]quinolin-4-yl)amino)-1H-pyrazol-1-yl)piperidin-1-yl)ethan-1-one]

IC50 (LRRK2) [nM]	IC50 (SYK kinase) [nM]	SMILES
10 to 100	< 10	CC(C)(C#N)n1cc(Nc2nc3ccc(S(C)(=O)=O)cc3c3cn[nH]c23)cn1 [Example 172, 2-methyl-2-(4-((8-(methylsulfonyl)-3H-pyrazolo[3,4-c]quinolin-4-yl)amino)-1H-pyrazol-1-yl)propanenitrile]
10 to 100	< 10	COc1ccc2nc(Nc3cnn(C4CCNC4)c3)c3n[nH]cc3c2c1 (stereo not drawn) [Example 312, 8-methoxy-N-(1-(pyrrolidin-3-yl)-1H-pyrazol-4-yl)-2H-pyrazolo[3,4-c]quinolin-4-amine]
10 to 100	10 to 100	COc1ccc2nc(Nc3cnn(C4CCCOC4)c3)c3n[nH]cc3c2c1 (stereo not drawn) [Example 314, 8-methoxy-N-(1-(tetrahydro-2H-pyran-3-yl)-1H-pyrazol-4-yl)-2H-pyrazolo[3,4-c]quinolin-4-amine]
< 10	10 to 100	CC(C)=Cn1cc(Nc2nc3ccc(S(C)(=O)=O)cc3c3cn[nH]c23)cn1 [Example 263, N-(1-(2-methylprop-1-en-1-yl)-1H-pyrazol-4-yl)-8-(methylsulfonyl)-3H-pyrazolo[3,4-c]quinolin-4-amine]
10 to 100	< 10	CN1CCN(C2CCN(c3ccc(Nc4nc5ccc(S(C)(=O)=O)cc5c5cn[nH]c45)cc3)CC2)CC1 [Example 67, N-(4-(4-(4-methylpiperazin-1-yl)piperidin-1-yl)phenyl)-8-(methylsulfonyl)-3H-pyrazolo[3,4-c]quinolin-4-amine]
10 to 100	10 to 100	CC(C)Cn1cc(Nc2nc3cc(S(C)(=O)=O)ccc3c3cn[nH]c23)cn1 [Example 192, N-(1-isobutyl-1H-pyrazol-4-yl)-7-(methylsulfonyl)-3H-pyrazolo[3,4-c]quinolin-4-amine]
< 10	10 to 100	CS(=O)(=O)c1ccc2c(c1)nc(Nc1cnn(C3CCOCC3)c1)c1[nH]ncc12 [Example 120, 7-(methylsulfonyl)-N-(1-(tetrahydro-2H-pyran-4-yl)-1H-pyrazol-4-yl)-3H-pyrazolo[3,4-c]quinolin-4-amine]
10 to 100	10 to 100	CC(C)n1cc(Nc2nc3cc(S(C)(=O)=O)ccc3c3cn[nH]c23)cn1 [Example 189, N-(1-isopropyl-1H-pyrazol-4-yl)-7-(methylsulfonyl)-3H-pyrazolo[3,4-c]quinolin-4-amine]
< 10	< 10	CS(=O)(=O)c1ccc2nc(Nc3cnn(C4CCNC4)c3)c3n[nH]cc3c2c1 (stereo not drawn) [Example 327, 8-(methylsulfonyl)-N-(1-(pyrrolidin-3-yl)-1H-pyrazol-4-yl)-2H-pyrazolo[3,4-c]quinolin-4-amine]
10 to 100	100 to 1000	CS(=O)(=O)c1ccc2c(c1)nc(Nc1ccc(N3CCOCC3)cc1)c1[nH]ncc12 [Example 101, 7-(methylsulfonyl)-N-(4-morpholinophenyl)-3H-pyrazolo[3,4-c]quinolin-4-amine]
< 10	100 to 1000	CC(C)n1ncc(Nc2nc3ccc(S(C)(=O)=O)cc3c3cn[nH]c23)c1Cl [Example 233, N-(5-chloro-1-isopropyl-1H-pyrazol-4-yl)-8-(methylsulfonyl)-3H-pyrazolo[3,4-c]quinolin-4-amine]
100 to 1000	100 to 1000	COc1ccc2nc(Nc3ccc(CN4CCC(N5CCN(C)CC5)CC4)cc3)c3n[nH]cc3c2c1 [Example 22, 8-methoxy-N-(4-((4-(4-methylpiperazin-1-yl)piperidin-1-yl)methyl)phenyl)-2H-pyrazolo[3,4-c]quinolin-4-amine]
10 to 100	100 to 1000	COc1ccc2nc(Nc3cnn(C4CCOCC4)c3)c3n[nH]cc3c2c1 [Example 85, 8-methoxy-N-(1-(tetrahydro-2H-pyran-4-yl)-1H-pyrazol-4-yl)-2H-pyrazolo[3,4-c]quinolin-4-amine]
10 to 100	100 to 1000	COc1cccc2nc(Nc3ccc(-c4cnco4)cc3)c3[nH]ncc3c12 [Example 57, 9-methoxy-N-(4-(oxazol-5-yl)phenyl)-3H-pyrazolo[3,4-c]quinolin-4-amine]
100 to 1000	10 to 100	CC(C)(O)Cn1cc(Nc2nc3cc(S(C)(=O)=O)ccc3c3cn[nH]c23)cn1 [Example 329, 2-methyl-1-(4-((7-(methylsulfonyl)-3H-pyrazolo[3,4-c]quinolin-4-yl)amino)-1H-pyrazol-1-yl)propan-2-ol]
10 to 100	100 to 1000	COc1cc(OC)c2nc(Nc3cnn(C4CCOCC4)c3)c3[nH]ncc3c2c1 [Example 289, 6,8-dimethoxy-N-(1-(tetrahydro-2H-pyran-4-yl)-1H-pyrazol-4-yl)-3H-pyrazolo[3,4-c]quinolin-4-amine]
